The values that follow come from patent publication US10226466B2, “Methods of treating fibrosis” (Pharmacyclics LLC, priority 2014, dated 2019).

Each structure is given as a SMILES string. Where “and” joins values, the source holds several entries; their conditions need not be identical. Identical values can stand only once. Entries after “also recorded” stand apart in the source; their conditions may differ.

The test system of assay [1] is p53^ER/ER;LSLKRas^G12D;pdx1-Cre mice. As to the kind of experiment: Histology, immunohistochemistry and Picrosirius Red collagen staining of pancreata from PDAC model mice treated for 4 weeks. It is filed as in vivo, mouse. The conditions noted are these: for Collagen deposition (Picrosirius Red Staining): intraperitoneal daily injection of 10 mg per kg for 4 weeks from 8 weeks of age, compared to vehicle-treated control. Here is the method: (§1) For immunohistochemical analyses, tissue samples were fixed overnight in neutral pH-buffered formalin, embedded in paraffin and sectioned (5 μm). Sections were then deparaffinized, rehydrated and microwaved for 1 min in 0.01 M citrate buffer (pH 6.0) for antigen retrieval. Primary antibodies (rat monoclonal anti-CD11b (clone M1/70), eBioscience; rabbit monoclonal anti-Ki67 (clone SP6), Neomarkers) were applied for 2 h in blocking buffer (2.5% BSA, 5% goat serum and 0.3% Triton X-100 in PBS), followed by Vectastain ABC kit and DAB reagents (Vector Laboratories). Images were obtained with an Axiovert S100 TV inverted fluorescence microscope (Zeiss) and Open Lab 3.5.1 software, or with an Axiovert 100 inverted microscope (Zeiss) equipped with a Hamamatsu Orca digital camera. The mast cells were identified using 1% toluidine blue dissolved in ethanol. Picrosirius Red stain kit (Polysciences, Inc.) was used to stain for collagen Types I and III according to manufacturer instructions.
For all experiments, 8 week old male and female p53^ER/ER;LSLKRas^G12D;pdx1-Cre mice of mixed C57BL/6-FVB/N background were randomized into two groups: treated and control. Ibrutinib (0.16 mg/mL with 1% 2-Hydroxypropyl-beta-cyclodextrin (HP-β-CD)) was added to the drinking water of treated animals, and control animals received water containing vehicle only (1% HP-β-CD). Gemcitabine (75 mg/kg) was injected intraperitoneally twice a week for 3 weeks followed by a 1-week rest period. Sodium cromoglycate ([…]) was dissolved in saline solution and injected intraperitoneally, and control mice were treated with vehicle only. Endpoint criteria were defined as 20% body weight loss in addition to general morbidity and lethargy caused by tumor burden. Mice euthanized due to intestinal metaplasia or mucocutaneous papillomas caused by extrapancreatic KRAS^G12D expression were excluded from the survival study.
A p53^ER/ER;LSLKRas^G12D;pdx1-Cre mouse model that harbors a Cre-activated KRasG12D allele inserted into the endogenous KRas locus combined with pancreas-specific PDX-1-driven Cre recombinase activity was used. The disruption of Trp53 signaling in combination with KRas mutation leads to rapid tumorigenesis and histopathological features typical of human pancreatic adenocarcinoma within only 8 weeks. At this stage the animals were treated with ibrutinib, at a dose of 25 mg/Kg/day added to their drinking water, or with vehicle control. The animals were euthanized 4 weeks later and their pancreata harvested for analysis. […] In stained, vehicle-treated mast cells, the cell borders were broken and the content of their granules were released. […] Reasons for this phenomenon can include the fact that several chemokines produced by mast cells, such as IL6, are known to be potent stimulants for monocytic cell migration and macrophage activation, so that inhibiting mast cells could prevent their recruitment.
In order to verify that this effect on fibrosis was specifically due to mast cell interference, two independent control experiments were performed. In the first experiment, sodium cromoglycate (cromolyn), a well-characterized blocker of mast cell degranulation and inflammogen release was used. The p53^ER/ER;LSLKRas^G12D ,pdx1-Cre mice were treated intraperitoneally (i.p.) with a daily injection of 10 mg per kg (bodyweight) of cromolyn, starting at 8 weeks of age. The animals were euthanized 4 weeks later and their pancreata analysed.

For assay [2] the test system is unchanged. As to the kind of experiment: Flow cytometry of single cell suspensions of PDAC tumors from treated mice. Format: in vivo, mouse. Conditions: ibrutinib 25 mg/Kg/day in drinking water, 4 weeks. As to the method: Following resection, PDAC tumors isolated from PBS-perfused mice were immediately placed in ice-cold PBS, followed by manual mincing using scissors and a 20 min enzymatic digestion with 1.25 mg/mL collagenase type IV (Roche), 0.1% trypsin inhibitor, and 50 U/ml DNase I (Roche) in serum-free Dulbecco's Modified Eagle's Medium (DMEM) (Invitrogen) at 37° C. with continuous stirring. Single cell suspensions were then prepared by passing tissue through 70 μm nylon strainers (BD Biosciences). Cells were incubated for 30 min at 4° C. with rat anti-mouse CD16/CD32 mAb (1:250, clone 2.4G2, BD Bioscience) in PBS, which also contained Live/Dead Aqua stain (1:250, Invitrogen) to differentiate between viable and dead cells. Cells were then incubated for 30 min in PBS containing 1.0% BSA (Sigma) and 2 mM EDTA with 100 μl of fluorophore-conjugated anti-mouse antibodies (dilution; clone): PE-Cy7-CD45 (1:800; 30-F11), PerCp-Cy5.5-CD3e (1:400; 145-2C11), PerCp-Cy5.5-CD19 (1:200; 6D5), PerCp-Cy5.5-CD49b (1:400; DX5), Alexa 700-CD11b (1:400; M1/70), APC780-CD11c (1:200; N418), eFluor450-MHCII (1:800; M5/114.15.2), APC-Ly6C (1:800; HK1.4), PE-Ly6G (1:400; 1A8), and PE-Cy5-F4/80 (1:400; BM8) (eBioscience or Biolegend). Cells were then washed once in PBS containing 1.0% BSA (Sigma) and 2 mM EDTA, followed by fixation with BD Cytofix for 30 min on ice. […]
(A flow cytometer gives signals particle by particle.)

Assay [3] deals with subcutaneous xenografts of a patient derived tumor in NOD/SCID mice. Kind of assay: Collagen deposition in subcutaneous xenografts of a patient-derived tumor (PDX) in NOD/SCID mice. It is filed as in vivo, mouse. Conditions: NOD/SCID mice with patient-derived xenograft, ibrutinib-treated vs untreated. Here is the method:
as §1
NOD/SCID mice were purchased from Charles River Laboratory. The anonymized human sample employed was part of the tissue biological material of the University Hospital Vall d'Hebron. […] Tumor size was evaluated weekly by caliper measurements and tumor volume calculated using the following formula: […]

Assay [4] concerns p53^ER/ER;LSLKRas^G12D;pdx1-Cre mice. Kind of assay: Survival study in PDAC model mice (Kaplan-Meier, Log-rank test). It is filed as in vivo, mouse. The conditions noted are these: treatment starting from 8 weeks of age; Log-rank p value=0.015.
Method: For all experiments, 8 week old male and female p53^ER/ER;LSLKRas^G12D;pdx1-Cre mice of mixed C57BL/6-FVB/N background were randomized into two groups: treated and control. Ibrutinib (0.16 mg/mL with 1% 2-Hydroxypropyl-beta-cyclodextrin (HP-β-CD)) was added to the drinking water of treated animals, and control animals received water containing vehicle only (1% HP-β-CD). Gemcitabine (75 mg/kg) was injected intraperitoneally twice a week for 3 weeks followed by a 1-week rest period. Sodium cromoglycate (10/kg) was dissolved in saline solution and injected intraperitoneally, and control mice were treated with vehicle only. Endpoint criteria were defined as 20% body weight loss in addition to general morbidity and lethargy caused by tumor burden. Mice euthanized due to intestinal metaplasia or mucocutaneous papillomas caused by extrapancreatic KRAS^G12D expression were excluded from the survival study.
Statistical analysis was carried out by two-tailed Mann-Whitney test (for IHC counts), two tailed unpaired t-test (for flow cytometry data) and Log-Rank test (for Kaplan-Meier survival curves). […] Statistical analysis was performed using GraphPad Prism 4.
Two independent survival experiments were undertaken to test the therapeutic impact of ibrutinib alone and to assess ibrutinib in combination with gemcitabine.
The next assay relates to mast cell. Conditions: mouse model of insulinoma; background statement; cited from earlier work.

Take `C=CC(=O)N1CCC[C@@H](n2nc(-c3ccc(Oc4ccccc4)cc3)c3c(N)ncnc32)C1` [ibrutinib, (R)-1-(3-(4-amino-3-(4-phenoxyphenyl)-1H-pyrazolo[3,4-d]pyrimidin-1-yl)piperidin-1-yl)prop-2-en-1-one]: the “Ki67 positive (proliferating) cells in pancreata / proliferation rate” value in assay [1] (ibrutinib 25 mg/Kg/day in drinking water for 4 weeks from 8 weeks of age, IHC, vehicle control 67.8%, p value=0.0016) is 14.9±7.0% and 14.9%. In addition, the “Mast cell degranulation in tumor stroma (toluidine blue staining)” value in assay [1] (ibrutinib 25 mg/Kg/day in drinking water, 4 weeks) is reported as “efficiently inhibited”. The “Amount of collagen in tumors (Picrosirius Red Staining)” value in assay [1] (ibrutinib 25 mg/Kg/day in drinking water, 4 weeks, compared to vehicle-treated animals) is reported as “reduced the amount of collagen”. Also, the “CD11b positivity by immunohistochemistry” value in assay [1] (ibrutinib 25 mg/Kg/day in drinking water, 4 weeks, compared to vehicle-treated mice) is “affected; also recorded: clear reduction of CD11b positivity”. Moreover, the “F4/80 positive macrophages (tumor-associated macrophages) by FACS analysis” value in assay [2] (FIG. 1C right panel) is “significant reduction”. For the same molecule, the “CD11b+ cells by FACS analysis” value in assay [2] (percent of total cells, FIG. 1C left panel) was “confirmed by FACS analysis”. Further, the “Collagen deposition / tissue fibrosis in tumor stroma (Picrosirius Red Staining)” value in assay [3] was “reduction in tissue fibrosis; also recorded: reduction of collagen deposition”. In addition, in assay [4], the “Survival, monotherapy vs vehicle control” value is “significant survival advantage; also recorded: confers survival advantage”. For the same molecule, the “Systemic mast cell blocking” value in the assay with mast cell is recorded as “potent systemic mast cell blocker”.

For the molecule `O=C(O)c1cc(=O)c2c(OCC(O)COc3cccc4oc(C(=O)O)cc(=O)c34)cccc2o1` [cromolyn, sodium cromoglycate, reference compound], the “Collagen deposition (Picrosirius Red Staining)” value in assay [1] is “reduced collagen deposition”; in assay [1] (listed as sodium cromoglicate) it was “recapitulated the antifibrotic effect”.
